Test results: patent publication US20050261162A1, “Pharmaceutical composition for preventing and treating cancer and treating an inflammation” (priority 2001, published 2005)

How the values were obtained:
IκBα = assay: Inhibition of IκB degradation in mouse skin treated with TPA (western blotting); format: in vivo; conditions: mouse skin cytoplasmic extract, topical pretreatment before TPA
Method: To examine the effect of xanthorrhizol on IκB, the level of IκB was measured in mouse skin. Cytoplasmic extract was prepared as follows. The mouse skin tissue obtained by the same method of embodiment 4 was homogenized in hypotonic buffer solution [10 mM HEPES, pH 7.8, 10 mM KCl, 2 mM MgCl2, 1 mM DTT, 0.1 mM EDTA, 0.1 mM phenylmethylsulfonyl fluoride (PMSF)]. To the homogenates was added 125 μl of 10% Nondiet P-40 solution and the mixture was then centrifuged for 30 sec. The supernatant (cytoplasmic extract) was electrophoresized on the 12% SDS-polyacrylamide gel. Blot was transferred from SDS-polyacrylamide gel to PVDF membrane, blocked with 5% fat-free dry milk-PBST buffer for 2 hr at room temperature and then washed in PBST buffer. Membrane was incubated for 2 hr at room temperature with rabbit IκBα polyclonal antibody (Santa Cruz Product, Santa Cruz, Calif., USA). Blot was rinsed with PBST, incubated with anti-rabbit horseradish peroxidase-conjugated secondary antibody (Santa Crus product, Santa Cruz, Calif., USA) and again washed 3 times in PBST buffer for 5 min. Transferred protein was visualized with an ECL detection kit.

procaspase-3 = assay: Activation of procaspase-3 in HL-60 cells (western blotting); format: cell-based, Human; conditions: 40 μM
Method: To investigate whether xanthorrhizol also induces the activation of procaspase-3, HL-60 cells were treated with 0, 10, 40, 80 μM of xanthorrhizol for 24 hr and was also treated with 80 μM of xanthorrhizol for 0, 2, 4, 6, 9 and 12 hr. The cells were harvested, suspended in 400 μl of lysis buffer described in embodiment 4, incubated 4° C. for 40 min and centrifuged. The supernatant was electrophoresized on the 12% SDS-polyacrylamide gel. Blot was transferred from SDS-polyacrylamide gel to PVDF membrane, blocked with 5% fat-free dry milk-PBST buffer for 2 hr at room temperature and then washed in PBST buffer. Membrane was incubated for 2 hr at room temperature with mouse procaspase-3 monoclonal antibody (Transduction Laboratories, Lexington, Ky., USA). Blot was rinsed with PBST, incubated with mouse horseradish peroxidase-conjugated secondary antibody and again washed 3 times in PBST buffer for 5 min. Transferred protein was visualized with an ECL detection kit.

iNOS = target: T1, iNOS (Mus musculus, UniProt P29477); assay: Inhibition of LPS-induced iNOS activity (nitric oxide production) in RAW264.7 macrophage cells; format: cell-based; conditions: LPS 1 μg/ml, 20 hr
T1 construct: endogenous in cells; host or cells: RAW264.7 macrophage cells, LPS-stimulated
T1 sequence (P29477 1-1144): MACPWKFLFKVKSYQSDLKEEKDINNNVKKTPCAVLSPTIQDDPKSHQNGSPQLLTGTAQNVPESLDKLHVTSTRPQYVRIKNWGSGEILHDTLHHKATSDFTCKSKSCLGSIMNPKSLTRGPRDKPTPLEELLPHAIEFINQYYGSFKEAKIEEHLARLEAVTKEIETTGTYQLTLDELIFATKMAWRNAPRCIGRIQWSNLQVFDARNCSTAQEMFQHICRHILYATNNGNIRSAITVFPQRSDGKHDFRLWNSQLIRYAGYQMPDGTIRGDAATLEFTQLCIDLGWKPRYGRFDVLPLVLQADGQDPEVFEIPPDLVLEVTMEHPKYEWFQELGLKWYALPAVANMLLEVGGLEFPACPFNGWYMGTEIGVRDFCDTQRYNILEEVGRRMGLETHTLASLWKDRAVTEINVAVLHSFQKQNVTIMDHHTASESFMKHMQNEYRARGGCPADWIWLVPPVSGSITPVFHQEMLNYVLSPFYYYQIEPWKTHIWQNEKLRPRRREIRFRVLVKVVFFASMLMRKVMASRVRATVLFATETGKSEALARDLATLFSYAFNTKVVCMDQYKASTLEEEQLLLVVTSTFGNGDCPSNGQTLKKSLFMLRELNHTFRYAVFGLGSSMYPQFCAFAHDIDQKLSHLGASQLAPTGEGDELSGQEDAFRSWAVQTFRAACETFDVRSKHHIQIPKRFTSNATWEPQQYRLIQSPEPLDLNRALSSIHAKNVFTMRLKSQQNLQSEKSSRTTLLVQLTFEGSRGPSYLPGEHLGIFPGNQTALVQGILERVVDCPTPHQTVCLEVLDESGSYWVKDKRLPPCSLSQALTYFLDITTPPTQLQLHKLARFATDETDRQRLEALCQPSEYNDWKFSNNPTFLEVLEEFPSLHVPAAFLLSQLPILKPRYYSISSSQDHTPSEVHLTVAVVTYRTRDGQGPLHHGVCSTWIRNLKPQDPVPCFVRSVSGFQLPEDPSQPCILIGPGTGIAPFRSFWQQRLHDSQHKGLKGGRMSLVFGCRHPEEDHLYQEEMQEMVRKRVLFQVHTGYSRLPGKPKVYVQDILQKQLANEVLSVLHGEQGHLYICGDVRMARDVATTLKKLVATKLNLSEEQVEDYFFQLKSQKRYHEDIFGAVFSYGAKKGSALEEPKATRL
Method: The effect of xanthorrhizol on iNOS activity induced by LPS was measured. RAW264.7 macrophage cells were maintained in DMEM supplemented with penicillin-streptomycin and 10% FBS at 37° C., in 5% CO2 of humidified air. The cells in 10% FBS-DMEM without phenol red media were plated in 24-well plates (8×10^5/ml), and then incubated for 4 hr. The cells were replaced with new media, and incubated in the medium with 1 μg/ml of LPS and xanthorrhizol. After an additional 20 hr incubation, the media were removed and analyzed for nitrite accumulation as an indicator of NO production by the Griess reaction. 150 μl of Griess reagent were added to 100 μl of each supernatant from LPS and/or xanthorrhizol treated cells in triplicate. The plates were incubated for 10 min, and were read at 570 nm against a standard curve of NaNO2. The percentage inhibition was expressed as [1−(NO level of sample/NO level of vehicle treated−control)]×100.

HL-60 cells = assay: DNA fragmentation in HL-60 cells (agarose gel electrophoresis); format: cell-based, Human; conditions: 80 μM, 24 hr
Method: HL-60 cells were cultured in 10% FBS-RPMI 1640 medium of 100 mm Petri dish for 2 days. The cells were treated with 0,10, 40, 80 μM of xanthorrhizol to investigate the effect of xanthorrhizol on DNA fragmentation, a biochemical marker of apoptosis. After 24 hr, the cells were collected, incubated with 500 μl of lysis buffer (1 % Triton-X 100, 50 mM Tris-HCl pH 7.4, 20 mM EDTA) for 1 hr on ice, and centrifuged. To the supernatant was added 100 μl of 1% SDS, 10 μl f TE/RNase(10 mg/ml), 50 µl of proteinase K (1 mg/ml) and the mixture was incubated at 37° C. at least for 4 hr. DNA was extracted with phenol-chloroform-isoamylalcohol (25:24:1, v/v) and precipitated at −70° C. for 1 hr after addition of 2.5 volumes of cold ethanol. DNA fragments were resolved by 1.5% agarose gel electrophoresis and visualized by staining with ethidium bromide.

**Q.** How did the “degradation of IκBα induced by TPA” value (IκBα) turn out when `CC(C)=CCC[C@@H](C)c1ccc(C)c(O)c1` [xanthorrhizol] was run?
**A.** inhibited by xanthorrhizol in a dose dependent manner

**Q.** What about the “activation of procaspase-3” value (procaspase-3) of the same compound?
**A.** activated the procaspase-3 to caspase-3

**Q.** And the IC50 (iNOS; read-out: IC50, LPS-induced iNOS activity (NO) (converted))?
**A.** 4.63 µM

**Q.** What about the inhibition at 10 µg/mL (iNOS; RAW264.7, 10 μg/ml, read-out: percentage inhibition of LPS-induced nitric oxide production (iNOS activity)) of the same compound?
**A.** ≥ 99%

**Q.** What about the DNA fragmentation (HL-60 cells) of the same compound?
**A.** induced
